Numbers after ± are expanded uncertainties.
How the values were obtained:
[1] = 298.15 K, 101.33 kPa, Liquid
[2] = refractive index (Na D-line) (dimensionless); details: 298.15 K; 101.33 kPa; Liquid; Standard Abbe refractometry

Compound | mass density [1] [kg/m3] | refractive index [2] | mass density ([1]; Vibrating tube method) [kg/m3]
CCCCCCCCCCCCCCCC [hexadecane] | 771.15 ± 0.85 | 1.43232 ± 0.0007 | 
CCOS(=O)(=O)[O-].CCn1cc[n+](C)c1 [1-ethyl-3-methylimidazolium ethyl sulfate] |  | 1.47903 ± 0.0012 | 1238.17 ± 8.3
CCCCCC [hexane] | 655.06 ± 1.1 | 1.37287 ± 0.0007 | 
CCCCCCCCCCCC [dodecane] | 745.32 ± 0.91 | 1.42011 ± 0.0007 | 

Results, then the molecule that gave them:

mass density [1] [kg/m3] | refractive index [2] | mass density ([1]; Vibrating tube method) [kg/m3] | Compound
1058.59 ± 0.28 | 1.5253 ± 0.00068 |  | c1ccsc1 [thiophene]
679.47 ± 0.66 | 1.38517 ± 0.00068 |  | CCCCCCC [heptane]

Reference: the NIST ThermoML archive (doi:10.1016/j.fluid.2008.06.012)
